Test results taken from publication PMC5442318, “Hundreds of dual-stage antimalarial molecules discovered by a functional gametocyte screen” (Nature Communications, 2017).
Like-named read-outs stand apart in the source and are kept apart here.

Legend:
[1] = system: P. falciparum stage V female gametocytes; assay: P. falciparum female gametocyte activation assay (Pf FGAA), 24 h or 48 h preincubation, Pfs25 expression readout; assay type: cell-based, Plasmodium falciparum NF54; conditions: for Pf FGAA classification: SLOW / FAST / GAMETE from activity at 48h, 24h, 0h incubation
Method in brief: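 Female activation, triggered by xanthurenic acid and cooling, was scored by imaging Cy3-labelled anti-Pfs25 female gametes after 24 h at 26 °C. Beforehand, purified NF54 stage V gametocytes had been incubated with compound for either 24 h or 48 h (37 °C, 3% O2). Values are pIC50 from full-curve regression.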

[2] = system: P. falciparum female gametes; assay: Pf FGAA with compounds added 30 min after triggering gametocyte activation (gamete-targeting); assay type: cell-based, Plasmodium falciparum NF54; conditions: 0h incubation time
[3] = system: P. falciparum stages IV–V gametocytes; assay: Gametocytocidal ATP-depletion assay (gametocyte ATP bioluminescence); assay type: cell-based, Plasmodium falciparum; conditions: for inhibition at 2 µM: Plasmodium falciparum, mean
Method in brief: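 Read-out is luciferase luminescence of parasite ATP (BacTiter-Glo), standing in for viability. Double-purified mature stage IV–V gametocytes, 12,500 per well, were exposed 48 h at 37 °C in low-O2 gas; screening concentration 2 μM.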

HepG2 cells = assay: HepG2 cytotoxicity assay; assay type: cell-based
Method in brief: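 Once incubation ended, the HepG2 plates were warmed to room temperature for 30 min alongside the CellTiter-Glo reagent. Luminescent signal was developed by reagent addition and stabilized for 10 min before plate reading.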

[4] = system: P. falciparum asexual blood stages; conditions: ref 1 (Gamo, F. J. et al., Nature 465, 305-310, 2010), cited from earlier work; for IC50: TCAMS asexual blood stage data, read-out: Pf Asexual blood stages XC50; for Pf Asexual stages XC50: TCAMS data
[5] = Plasmodium falciparum, 24h incubation time, read-out: Pf FGAA IC50 (µM) 24h
[6] = Plasmodium falciparum, P. falciparum female gametocytes, mean, read-out: Gametocytes mean Pf FGAA IC50
[7] = HepG2 TOX50 versus Pf FGAA IC50
[8] = 24h incubation time, read-out: Pf FGAA IC50 (µM) 24h
[9] = P. falciparum female gametocytes, mean, read-out: Gametocytes mean Pf FGAA IC50
[10] = mean, P. falciparum female gametocyte activation assay, read-out: Gametocytes mean Pf FGAA IC50

IC50 [1, 5] [µM]	IC50 [1, 6] [µM]	IC50 ([2]; Plasmodium falciparum) [µM]	IC50 [1, 8] [µM]	IC50 [1, 9] [µM]	IC50 [2] [µM]	IC50 [1, 10] [µM]	SMILES	Pf FGAA classification [1]	inhibition at 2 µM [3] [%]	Selectivity ratio (HepG2 cells; [7])	HepG2 cells mean TOX50 (HepG2 cells; HepG2 cells; mean) [µM]	IC50 [4] [nM]	Pf Asexual stages XC50 [4] [nM]	Gametocytes mean ATP inhibition at 2µM [3] [%]	HepG2 cells TOX50 (HepG2 cells; HepG2 cells) [µM]	HepG2 cells mean TOX50 (HepG2 cells; mean; HepG2 cells) [µM]
1	1.73	3.99					CCCC(=O)NC(c1ccc(C)cc1)c1ccc2cccnc2c1O (centres unmarked) [TCMDC-123605]	FAST	20.2	5.32	9.22	960	960			
			3.25	1.57	> 20		Clc1ccc(-c2csc3ncnc(Cl)c23)cc1 [TCMDC-123811]	SLOW			94.46	460	460	-1.98		
			0.14	1.16	2.14		O=C(Nc1nc(-c2ccccn2)cs1)c1ccc(Br)s1 [TCMDC-123868]	GAMETE			37.44	1060	1060	29.36		
			> 20	0.94	> 20		CCOc1ccc(-n2nc3c(Cl)nnc(-c4ccccc4)c3c2-c2ccccc2)cc1 [TCMDC-123899]	SLOW			>100	230	310	-0.60	>100	
			0.77	0.73	> 20		CCc1cc2c(Sc3nnc(N)s3)ncnc2s1 [TCMDC-123993]	FAST			32.30	660	660	23.86		
			1.5	1.44	> 20		Cc1ccc(Cl)c2sc(N3CCN(C(=O)c4ccc([N+](=O)[O-])o4)CC3)nc12 [TCMDC-124311]	FAST			25.79	320	320	-39.73		
1.38	1.1	> 20					O=C(c1ccc([N+](=O)[O-])o1)N1CCN(c2nc3c(Cl)cccc3s2)CC1 [TCMDC-124316]	FAST	0.49	38.14	41.96	980	980			
			> 20	0.24	14.4		c1ccn2c(Sc3ncnc4sccc34)ncc2c1 [TCMDC-124602]	SLOW			>100	660	660	12.16	>100	
						1.59	Nc1nc(N)c2cc(NC(=O)c3ccc(Cl)c(Cl)c3)ccc2n1 [TCMDC-141982]					150		1.96		2.14
						0.9	Cl.OC(CNCCCCCCNCC(O)c1ccc(Cl)c(Cl)c1)c1ccc(Cl)c(Cl)c1 (centres unmarked) [TCMDC-141987]					920		0.38		4.27

Further lines, the compound ahead of its results:

SMILES	IC50 [1, 5] [µM]	IC50 [1, 6] [µM]	IC50 ([2]; Plasmodium falciparum) [µM]	IC50 [1, 8] [µM]	IC50 [1, 9] [µM]	IC50 [2] [µM]	IC50 [1, 10] [µM]	Pf FGAA classification [1]	inhibition at 2 µM [3] [%]	Selectivity ratio (HepG2 cells; [7])	HepG2 cells mean TOX50 (HepG2 cells; HepG2 cells; mean) [µM]	IC50 [4] [nM]	Pf Asexual stages XC50 [4] [nM]	Gametocytes mean ATP inhibition at 2µM [3] [%]	HepG2 cells TOX50 (HepG2 cells; HepG2 cells) [µM]	HepG2 cells mean TOX50 (HepG2 cells; mean; HepG2 cells) [µM]
N#CC(c1ccc(Br)cc1)c1ccc2c(C(F)(F)F)cc(C(F)(F)F)nc2n1 (centres unmarked) [TCMDC-123754]	> 20	1.16	> 20					SLOW	-2.55	2.01	2.32	440	440			
Cc1ccc(C)c2sc(N3CCN(C(=O)c4ccc([N+](=O)[O-])o4)CC3)nc12 [TCMDC-124315]				2.82	1.12	> 20		SLOW			37.65	820	820	3.06		
O=C(Nc1ccc([N+](=O)[O-])cc1)Nc1cc(OCC(F)(F)F)cc(OCC(F)(F)F)c1 [TCMDC-124533]	2.32	1.16	5.64					SLOW	-45.2	5.40	6.24	470	470			
Clc1cc(Br)ccc1-c1ccc(CNCC2CCNCC2)o1 [TCMDC-124617]	> 20	0.72	> 20					SLOW	-8.62	6.08	4.37	1510	1510			
Cc1ccc(Cn2ncc(N3CCCNCC3)c(Cl)c2=O)cc1NC(=O)Nc1ccc(-c2ccccc2)cc1 [TCMDC-141924]							1.73					630		-4.47		7.86
Cc1c(Cn2ncc(N3CCC(N)CC3)c(Cl)c2=O)cccc1NC(=O)Nc1ccc(-c2ccccc2)cc1.O=C(O)C(F)(F)F [TCMDC-141931]							1.09					700		22.47		22.90
O=C(O)CCSSc1cccc[n+]1[O-] [TCMDC-141973]							0.04					810		100.49		19.05
Cl.N=C1C=C(N)C(=O)c2ccccc21 [TCMDC-141992]							11.9					1050		55.55		0.52
CCn1c2ccccc2c2cc(C=NN=c3cc(C)[nH]c4ccccc34)ccc21 [TCMDC-142186]							4.15					310		36.64		5.82
Cc1c(N=O)cc(C(C)(C)C)c(O)c1C(=O)Nc1ccc([N+](=O)[O-])cc1Cl [TCMDC-142233]							1.17					770		-7.78		1.78
Cl.Nc1c(I)cc(C(=O)Nc2ccc3nc4c(c(N)c3c2)CCCC4)cc1I [TCMDC-142289]							0.78					140		70.94		4.52
O=c1c(NCCCN(Cc2ccc(F)cc2)c2ccccn2)c(NCc2cccnc2)c1=O [TCMDC-142311]							0.36					60		58.25		>100
